EPA's ToxValDB 9.5 (doi:10.2903/j.efsa.2009.343r)

How the values were obtained:
[1] = test system: Typhlodromus pyri; assay: LR50; higher = less toxic; conditions: not reported; mortality
[2] = test system: Apis mellifera; conditions: acute; duration: 48 hours; oral; unspecified; mortality
[3] = test system: Pimephales promelas; conditions: chronic/long-term; duration: 36 days; development
[4] = test system: Typhlodromus pyri; conditions: not reported; F; reproduction
[5] = test system: Colinus virginianus; conditions: for NOEL: reproduction developmental
[6] = test system: Anas platyrhynchos; conditions: oral, mortality
[7] = test system: Canidae; conditions: subchronic; duration: 90 days; oral; Dog Other; histopathology: nonneoplastic
[8] = test system: Oryctolagus sp.; conditions: reproduction developmental; body weight
[9] = test system: Oncorhynchus mykiss; conditions: acute; duration: 96 hours; mortality
[10] = test system: Rattus norvegicus
[11] = test system: Tagia sp.; conditions: acute; duration: 14 days; mortality
[12] = test system: Daphnia magna; conditions: chronic/long-term; duration: 21 days

With `COc1cnc(OC)n2nc(NS(=O)(=O)c3c(OCC(F)F)cccc3C(F)(F)F)nc12` [Penoxsulam] the LR50 [1] was 7.46 g/ha, the LD50 [2] was over 100 µg/piece and the NOEC [3] was 10 mg/L. It also gave an LEL [4] of 4 g/ha, an LC50 ([5]; acute, duration: 8 days, oral, diet, mortality) of over 804 mg/kg-day and an NOEL ([5]; F) of 80.1 mg/kg-day. It also gave an NOEL ([5]; M) of 82.5 mg/kg-day, an LD50 ([6]; acute, unspecified) of over 2000 mg/kg-day and an LC50 ([6]; short-term, duration: 8 days, feed) of over 1120 mg/kg-day. It also gave an NOAEL [7] of 18 mg/kg-day, an NOAEL [8] of 25 mg/kg-day and an LC50 [9] of over 100 µg/mL. For the same compound, the LD50 ([10]; acute, oral, mortality) was over 5000 mg/kg-day, the NOAEL ([10]; chronic, duration: 2 years, histopathology: nonneoplastic) was 5 mg/kg-day and the NOAEL ([10]; reproduction developmental, body weight) was 100 mg/kg-day. For the same compound, the NOAEL ([10]; reproduction developmental, reproduction) was 300 mg/kg-day, the LC50 [11] was over 1000 mg/kg and the NOEC [12] was 3.33 mg/L.
